Broadly, the LD50 is the dose expected to kill half of the subjects tested. A high value points to a less toxic substance.

Where only a bound is given, the exact number is not on record here.

The subject of one series is blood sugar. Put plainly: Hypoglycemic activity in mice (blood sugar by the glucose oxidase method). Conditions: KKA^y mice; 0.02% in powder diet CE2 for 4 days; activity of test compound 1 regarded as 100. The format is in vivo, KKA^y mice (female, 10 weeks of age). The source says: KKA^y mice (female, 10 weeks of age, 5 mice/group) received ad libitum powder diet CE2 (CLEA JAPAN) containing 0.02% of the compounds indicated below in the table mixed therewith for 4 days. Water was available ad libitum throughout the period. Blood sample were taken from the orbital vein and assayed for blood sugar by the glucose oxidase method.
Regarding `C[C@@]1(COc2ccc(CC3SC(=O)NC3=O)cc2)CCC[C@H](O)C1` (relative stereo) [compound 7], the “Hypoglycemic activity (relative potency)” value stood at 125. With “5-[4-(2-hydroxy-1-methylcyclohexylmethoxy)benzyl]thiazolidine-2,4-dione [Test compound 4]”, the “Hypoglycemic activity (relative potency)” value came out at 118. For the compound `CC1(COc2ccc(CC3SC(=O)NC3=O)cc2)CCCCC1=O` (stereo not drawn) [Test compound 3, 5-[4-(1-methyl-2-oxocyclohexylmethoxy)-benzyl]thiazolidine-2,4-dione], the “Hypoglycemic activity (relative potency)” value is recorded as 179. As for `C[C@@]1(COc2ccc(CC3SC(=O)NC3=O)cc2)CCC[C@@H](O)C1` (relative stereo) [Test compound 6, 5-[4-(t-3-hydroxy-1-methyl-r-1-cyclohexylmethoxy)benzyl]-thiazolidine-2,4-dione], the “Hypoglycemic activity (relative potency)” value is 369.

In the case of `CC1(COc2ccc(CC3SC(=O)NC3=O)cc2)CCCCC1O` (stereo not drawn) [compound 4], the “Hypoglycemic activity (relative potency)” value turned out to be 114.

Test system in another series: not listed separately
Put plainly: Toxicity (LD50) in mice. Conditions: mouse, in vivo.
Consider `CC1(COc2ccc(CC3SC(=O)NC3=O)cc2)CCC(O)CC1` (stereo not drawn) [5-[4-(4-hydroxy-1-methylcyclohexylmethoxy)benzyl]thiazolidine-2,4-dione], for which the 50% lethal dose (LD50) was no less than 5000 mg/kg. Turning to `CC1(COc2ccc(CC3SC(=O)NC3=O)cc2)CCCCC1=O` (stereo not drawn) [Test compound 3, 5-[4-(1-methyl-2-oxocyclohexylmethoxy)-benzyl]thiazolidine-2,4-dione], the LD50 was no less than 5000 mg/kg. As to `CC1(COc2ccc(CC3SC(=O)NC3=O)cc2)CCC(=O)CC1` (stereo not drawn) [Example 3, 5-[4-(1-methyl-4-oxocyclohexylmethoxy)benzyl]thiazolidine-2,4-dione], the 50% lethal dose (LD50) is no less than 5000 mg/kg. Compound `CC1(COc2ccc(CC3SC(=O)NC3=O)cc2)CCCC(=O)C1` (stereo not drawn) [5-[4-(1-methyl-3-oxocyclohexylmethoxy)benzyl]thiazolidine-2,4-dione] had an LD50 of no less than 5000 mg/kg.

The values above are taken from patent US4461902A, “Thiazolidine derivatives and production thereof” (Takeda Chemical Industries, Ltd., priority 1982, dated 1984).
